The source of these data is PubChem BioAssay (NCI).

Common to all, as to assay: NCI-60 cell line screen, 48 h
Assay [1] concerns SF-295 CNS.
The test system of assay [2] is OVCAR-8 ovarian.
Assay [3] has as its system U251 CNS.
The subject of assay [4] is MOLT-4 leukemia.
Assay [5] deals with NCI/ADR-RES ovarian.
Assay [6] relates to SF-539 CNS.
Assay [7] deals with SK-MEL-5 melanoma.
Assay [8] relates to NCI-H23 lung.
Assay [9] deals with CAKI-1 renal.
In assay [10] the test system is UACC-257 melanoma.
Assay [11] relates to RPMI-8226 leukemia.
Assay [12] relates to SK-MEL-2 melanoma.
For assay [13], the system named is SF-268 CNS.
The test system of assay [14] is OVCAR-3 ovarian.
Assay [15] deals with PC-3 prostate.
In assay [16] the test system is TK-10 renal.
Assay [17] relates to NCI-H522 lung.
Assay [18] deals with HL-60(TB) leukemia.

Structures are written as SMILES.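 1) Cells in 96-well plates. 2) Compound, 48 h, 5 concentrations. 3) Linear interpolation between surrounding doses. 4) Unreached endpoint = highest concentration. Definition used: TGI = concentration required for complete inhibition of growth.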

Take `COc1ccc2c(c1)N(C(C)=O)CN1C(=O)CCC21` (stereo not given): the TGI in assay [1], in [2], in assay [3], in [4], in assay [5] and in assay [6] was above 100 µM in each case. The TGI in assay [7], in assay [8], in [9], in assay [10], in assay [11] and in assay [12] was above 100 µM each time. Further, the TGI in assay [13], in [14], in [15], in [16], in assay [17] and in [18] was above 100 µM in each case.

For the compound `COc1ccc(C2SC(N)=Nc3c2c(C)nn3C(=O)c2ccc(Cl)cc2)cc1` (stereo not given), the TGI in [1], in assay [2], in [3], in assay [4], in assay [5] and in assay [6] was above 10 µM in each case. For the same compound, the TGI in assay [7], in assay [8], in assay [9], in [10], in assay [11] and in [12] was above 10 µM each time. Further, the TGI in assay [13], in [14], in assay [15], in [16], in assay [17] and in [18] was above 10 µM throughout.

As to `CCOc1ccc(N/C(=C(/C(Cl)=C(/Cl)NCCO)[N+](=O)[O-])n2nnc3ccccc32)cc1`, the TGI is above 100 µM in [1]; 36.7 µM in [2]; 58.7 µM in assay [3]; above 100 µM in assay [4]; 64 µM in assay [5]; 93 µM in assay [6]. The TGI in assay [8] was 33 µM; in [9], 27.8 µM; in assay [10] it was above 100 µM; in [11], above 100 µM; in assay [12], above 100 µM; in assay [13], 41 µM. Further, the TGI in assay [14] was determined as 35.2 µM; in assay [15] it was 86.4 µM.

On to `NC1=CC(C(=O)c2ccncc2)c2nc3ccccc3nc21` (stereo not given), for which the TGI in [1], in assay [2], in assay [3], in assay [4], in assay [5] and in [6] was above 100 µM each time. The TGI in [7], in assay [8], in assay [9], in assay [10], in assay [11] and in assay [12] was above 100 µM throughout. In addition, the TGI in assay [13], in assay [14], in assay [15], in [16] and in [17] was above 100 µM each time.

With `CC1=CC2(O)OC3(CC2=C(C)C)C(C)CCC13` (stereo not given), the TGI in assay [1], in assay [2], in assay [3], in assay [4], in assay [5] and in assay [6] was above 100 µM throughout. In addition, the TGI in [7], in assay [8], in [9], in assay [10], in assay [11] and in assay [12] was above 100 µM in each case. Further, the TGI in assay [13], in assay [14], in [16], in assay [17] and in assay [18] was above 100 µM in each case.

As for `NC(=O)C(=CN1C(=O)CC(=O)NC1=S)C(N)=O`, the TGI in assay [1], in assay [2], in [3], in assay [4], in [5] and in assay [6] was above 100 µM throughout. Moreover, the TGI in assay [7], in assay [8], in assay [9], in assay [10], in assay [12] and in assay [13] was above 100 µM in each case. In addition, the TGI in assay [14], in assay [16] and in assay [18] was above 100 µM throughout.

Take `O=C1/C(=C/c2ccc(Cl)cc2)NC(=S)N1CN1CCOCC1`: the TGI in [1], in assay [2], in [3], in [4], in [5] and in assay [7] was above 100 µM each time. The TGI in assay [8], in assay [10], in [11], in assay [12], in [13] and in [14] was above 100 µM each time. Besides, the TGI in assay [15] and in assay [16] was above 100 µM in each case.

Turning to `COc1ccc(Nc2nc(N)c(C(=O)c3ccc(OC)cc3)s2)cc1`, the TGI in assay [1] is 40.6 µM; in assay [2], above 74.5 µM; in assay [3] it was 17.2 µM; in assay [5], above 100 µM; in [6] it was 23 µM; in assay [7], above 100 µM. Besides, the TGI in [8] was above 93.4 µM; in [9] it was above 48.6 µM; in assay [10] it was above 100 µM; in assay [11], 0.659 µM; in assay [12], above 55.4 µM; in assay [13], above 100 µM. Moreover, the TGI is 2.1 µM in assay [14]; 22.1 µM in assay [15]; above 60.7 µM in [16]; 0.455 µM in assay [17]; 0.802 µM in [18].

For the compound `Cc1cn(CC2=NCC(C)(C)CN2)c(=O)[nH]c1=O`, the TGI in [1], in assay [2], in assay [3], in assay [5], in assay [7] and in assay [8] was above 100 µM throughout. The TGI in assay [10], in assay [12], in assay [13], in assay [15], in [16] and in [17] was above 100 µM each time. Moreover, the TGI in assay [18] was above 100 µM.

Regarding `CO[C@@](c1ccccc1)(c1nc(C#N)c(N)o1)C(F)(F)F`, the TGI in [1], in [2], in [3], in assay [4], in assay [5] and in assay [6] was above 100 µM throughout. Also, the TGI in [7], in assay [8], in [9], in assay [10], in [11] and in assay [12] was above 100 µM in each case. Moreover, the TGI was above 100 µM in assay [14], above 100 µM in assay [15], above 100 µM in [16] and 85.9 µM in assay [17].

As for `O=C1Nc2ccccc2[C@]12C[C@H]2c1ccccn1`, the TGI in [1], in assay [3], in assay [4], in [5], in [6] and in assay [7] was above 100 µM throughout. Besides, the TGI in assay [8], in [9], in assay [10], in [11], in [12] and in assay [13] was above 100 µM in each case. Further, the TGI in assay [14], in assay [15], in assay [16] and in assay [17] was above 100 µM in each case.

`COc1cc(C)cc2c1C(=O)C(Br)=CC2=O`: the TGI in [1] was 30 µM; in [2], 15.2 µM; in assay [3], 37.4 µM; in assay [4], 5.19 µM; in [5] it was 74.9 µM; in [6], 28.5 µM. Moreover, the TGI in assay [7] amounted to 25.1 µM; in assay [8] it was 39.4 µM; in [9], 3.18 µM; in assay [10], 26.7 µM; in assay [12], 29.4 µM; in assay [13], 35.8 µM. For the same compound, the TGI in assay [14] came to 11.7 µM; in assay [15] it was 31.3 µM; in assay [16] it was 5.9 µM; in [17], 3.19 µM.

Take `CCCCSC1=N/C(=C\c2ccco2)C(=O)N1`: the TGI in assay [1], in [2], in [3], in assay [4], in assay [5] and in assay [7] was above 100 µM each time. For the same compound, the TGI in [8], in assay [9], in assay [10], in assay [11], in assay [12] and in assay [13] was above 100 µM each time. The TGI in assay [14], in assay [15], in assay [16], in [17] and in assay [18] was above 100 µM throughout.

`CN(C)c1ccc(/C=C2\N=C(N/N=C/c3ccccc3)NC2=O)cc1`: the TGI in assay [1] is above 100 µM; in assay [2], 72.8 µM; in [3], above 100 µM; in assay [4] it was above 100 µM; in [5], above 100 µM; in assay [7], above 100 µM. The TGI in assay [8], in assay [9], in [10], in assay [11], in [12] and in assay [13] was above 100 µM each time. Further, the TGI in assay [14], in assay [15], in assay [16], in assay [17] and in assay [18] was above 100 µM throughout.
